Reference: PubChem BioAssay AID248 (DTP/NCI, 2004)
“And” between values parts separate entries of the source, which are not always exact repeats. Equal entries are not always repeated. Toxic doses and inconclusive results are not listed. Rule as the data show it: active = T/C of 150% or more; inactive = T/C below 125%. Square brackets hold non-standard residues; d marks the D form. Peptide text beside a SMILES is read from it. ξ: configuration not given here. ξE = NC(CCC(=O)O)C(=O)O

Test system: L1210 leukemia ip in BDF1 mice, survival T/C
Experiment: NCI In Vivo Anticancer Drug Screen. Data for tumor model L1210 Leukemia (intraperitoneal) in B6D2F1 (BDF1) mice
Conditions: endpoint: mean survival time, higher = longer survival
In short: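 Each compound was tested against a transplantable tumor grown in mice. The endpoint was survival, with treated animals benchmarked against vehicle controls as a simple ratio.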

[1] = dose: 100.0 mg/kg/injection, schedule: Q01DX009 (ip), vehicle: Klucel (hydroxypropylcellulose) (HPC)
[2] = dose: 100.0 mg/kg/injection, schedule: Q04DX003 (ip), vehicle: Klucel (hydroxypropylcellulose) (HPC)
[3] = dose: 200.0 mg/kg/injection, schedule: Q01DX009 (ip), vehicle: Klucel (hydroxypropylcellulose) (HPC)
[4] = dose: 200.0 mg/kg/injection, schedule: Q04DX003 (ip), vehicle: Klucel (hydroxypropylcellulose) (HPC)
[5] = dose: 400.0 mg/kg/injection, schedule: Q01DX009 (ip), vehicle: Klucel (hydroxypropylcellulose) (HPC)
[6] = dose: 400.0 mg/kg/injection, schedule: Q04DX003 (ip), vehicle: Klucel (hydroxypropylcellulose) (HPC)
[7] = dose: 25.0 mg/kg/injection, schedule: Q01DX009 (ip), vehicle: saline
[8] = dose: 50.0 mg/kg/injection, schedule: Q01DX009 (ip), vehicle: saline
[9] = dose: 100.0 mg/kg/injection, schedule: Q01DX009 (ip), vehicle: saline
[10] = dose: 100.0 mg/kg/injection, schedule: Q04DX003 (ip), vehicle: saline
[11] = dose: 200.0 mg/kg/injection, schedule: Q04DX003 (ip), vehicle: saline
[12] = dose: 400.0 mg/kg/injection, schedule: Q04DX003 (ip), vehicle: saline
[13] = dose: 100.0 mg/kg/injection, schedule: Q01DX001 (ip), vehicle: saline with Tween-80
[14] = dose: 100.0 mg/kg/injection, schedule: Q01DX001 (ip), vehicle: carboxymethylcellulose (CMC)
[15] = dose: 200.0 mg/kg/injection, schedule: Q01DX001 (ip), vehicle: carboxymethylcellulose (CMC)
[16] = dose: 50.0 mg/kg/injection, schedule: Q04DX002 (ip), vehicle: saline
[17] = dose: 100.0 mg/kg/injection, schedule: Q04DX002 (ip), vehicle: saline

Measured: T/C

S=c1nc[nH]c2ccccc12
inactive: [1] 93 % of control | [2] 91 % of control | [3] 95 % of control | [4] 94 % of control | [5] 88 % of control | [6] 98 % of control

CCC(=O)NCC1(c2ccccc2)CCN(CCCC(=O)c2ccc(F)cc2)CC1
inactive: [7] 121 % of control | [8] 113 % of control | [9] 121 % of control

CCOC(=O)NC(=S)Nc1ncn[nH]1
inactive: [10] 96 % of control | [11] 97 % of control | [12] 103 % of control

CN(C)c1nc(N)c(N)c(N)n1
inactive: dose: 25.0 mg/kg/injection, schedule: Q01DX001 (ip), vehicle: saline with Tween-80 101 % of control | dose: 50.0 mg/kg/injection, schedule: Q01DX001 (ip), vehicle: saline with Tween-80 107 % of control | [13] 96 % of control and 97 % of control

CCc1cc2c(cc1C(=O)/C=C\C(=O)O)C(C)(C)CCC2(C)C
inactive: dose: 0.5 mg/kg/injection, schedule: Q01DX001 (ip), vehicle: saline 96 % of control | dose: 1.0 mg/kg/injection, schedule: Q01DX001 (ip), vehicle: saline 100 % of control | dose: 2.0 mg/kg/injection, schedule: Q01DX001 (ip), vehicle: saline 98 % of control | dose: 2.97 mg/kg/injection, schedule: Q01DX001 (ip), vehicle: saline 100 % of control | dose: 3.75 mg/kg/injection, schedule: Q01DX009 (ip), vehicle: saline with Tween-80 98 % of control | dose: 3.75 mg/kg/injection, schedule: Q04DX003 (ip), vehicle: acetone 101 % of control | dose: 4.5 mg/kg/injection, schedule: Q01DX001 (ip), vehicle: saline 104 % of control | dose: 6.75 mg/kg/injection, schedule: Q01DX001 (ip), vehicle: saline 104 % of control | dose: 7.5 mg/kg/injection, schedule: Q01DX009 (ip), vehicle: saline with Tween-80 94 % of control | dose: 7.5 mg/kg/injection, schedule: Q04DX003 (ip), vehicle: acetone 108 % of control | dose: 9.9 mg/kg/injection, schedule: Q01DX001 (ip), vehicle: saline 96 % of control | dose: 15.0 mg/kg/injection, schedule: Q01DX001 (ip), vehicle: saline 98 % of control | dose: 15.0 mg/kg/injection, schedule: Q04DX003 (ip), vehicle: acetone 98 % of control

Cc1ccc2[nH]c(=S)[nH]c2c1
inactive: [13] 101 % of control | dose: 200.0 mg/kg/injection, schedule: Q01DX001 (ip), vehicle: saline with Tween-80 106 % of control

O=S(=O)(O)c1ccc(/C2=c3\cc/c([n-]3)=C(\c3ccc(S(=O)(=O)O)cc3)c3ccc([n-]3)/C(c3ccc(S(=O)(=O)O)cc3)=c3/cc/c([n-]3)=C(\c3ccc(S(=O)(=O)O)cc3)c3ccc2[n-]3)cc1.[Co]
inactive: [8] 97 % of control | [9] 113 % of control

O=C1OC(=O)C2C3C=CC3C12 (stereo not given)
inactive: dose: 100.0 mg/kg/injection, schedule: Q04DX002 (ip), vehicle: Klucel (hydroxypropylcellulose) (HPC) 95 % of control | dose: 200.0 mg/kg/injection, schedule: Q04DX002 (ip), vehicle: Klucel (hydroxypropylcellulose) (HPC) 100 % of control | dose: 400.0 mg/kg/injection, schedule: Q04DX002 (ip), vehicle: Klucel (hydroxypropylcellulose) (HPC) 92 % of control

O=C(NCc1ccc(Cl)c(Cl)c1)Nc1ccccc1Cl
inactive: [1] 97 % of control | [3] 100 % of control | [5] 103 % of control

O/N=C1/C=C(c2ccccc2)C(O)(c2ccccc2)C1 (stereo not given)
inactive: dose: 100.0 mg/kg/injection, schedule: Q04DX003 (ip), vehicle: saline with Tween-80 102 % of control | dose: 200.0 mg/kg/injection, schedule: Q04DX003 (ip), vehicle: saline with Tween-80 96 % of control | dose: 400.0 mg/kg/injection, schedule: Q04DX003 (ip), vehicle: saline with Tween-80 93 % of control

COC(=O)CC1C(=O)C(C)(C(=O)OC)CCC1c1ccc(OC)cc1 (stereo not given)
inactive: [9] 96 % of control | [10] 100 % of control | dose: 200.0 mg/kg/injection, schedule: Q01DX009 (ip), vehicle: saline 90 % of control | [11] 94 % of control | dose: 400.0 mg/kg/injection, schedule: Q01DX009 (ip), vehicle: saline 93 % of control | [12] 94 % of control

O=[N+]([O-])c1ccc2c(c1)Cc1cc(O)c(I)cc1-2
inactive: [14] 101 % of control | [15] 101 % of control | dose: 400.0 mg/kg/injection, schedule: Q01DX001 (ip), vehicle: carboxymethylcellulose (CMC) 97 % of control

Cc1ccc([N+](=O)[O-])cc1NC(=O)N(CCC#N)C1CCCCC1
inactive: [1] 101 % of control | [3] 105 % of control | [5] 95 % of control

N#CC1CNC(=S)N=C1c1ccccc1 (stereo not given)
inactive: [2] 100 % of control | [4] 95 % of control

CCCCCCCCCN1CCCC(C)C1 (stereo not given)
inactive: dose: 12.5 mg/kg/injection, schedule: Q04DX002 (ip), vehicle: Klucel (hydroxypropylcellulose) (HPC) 93 % of control | dose: 25.0 mg/kg/injection, schedule: Q04DX002 (ip), vehicle: Klucel (hydroxypropylcellulose) (HPC) 97 % of control | dose: 50.0 mg/kg/injection, schedule: Q04DX002 (ip), vehicle: Klucel (hydroxypropylcellulose) (HPC) 101 % of control

NCC(=O)NC(CCC(=O)O)C(=O)O (stereo not given) (H-Gly-[ξE]-OH)
inactive: [16] 89 % of control | [17] 104 % of control | dose: 200.0 mg/kg/injection, schedule: Q04DX002 (ip), vehicle: saline 93 % of control

COc1ccc(C)cc1NC(=O)c1ccc(F)cc1
inactive: [1] 94 % of control | [3] 97 % of control | [5] 100 % of control

CCCCCCCCCCCCCCCC[n+]1ccc(/C=C/c2ccccc2)cc1
inactive: dose: 2.5 mg/kg/injection, schedule: Q01DX001 (ip), vehicle: carboxymethylcellulose (CMC) 116 % of control | dose: 5.0 mg/kg/injection, schedule: Q01DX001 (ip), vehicle: carboxymethylcellulose (CMC) 121 % of control | dose: 10.0 mg/kg/injection, schedule: Q01DX001 (ip), vehicle: carboxymethylcellulose (CMC) 116 % of control

CN(C)C(=O)NCc1cccs1
inactive: dose: 100.0 mg/kg/injection, schedule: Q04DX003 (ip), vehicle: carboxymethylcellulose (CMC) 97 % of control | dose: 200.0 mg/kg/injection, schedule: Q04DX003 (ip), vehicle: carboxymethylcellulose (CMC) 93 % of control | dose: 400.0 mg/kg/injection, schedule: Q04DX003 (ip), vehicle: carboxymethylcellulose (CMC) 104 % of control

CC#CC(=O)O
inactive: dose: 6.25 mg/kg/injection, schedule: Q01DX009 (ip), vehicle: saline 106 % of control | dose: 12.5 mg/kg/injection, schedule: Q01DX009 (ip), vehicle: saline 106 % of control | dose: 25.0 mg/kg/injection, schedule: Q01DX005 (ip), vehicle: saline 104 % of control | [7] 98 % of control and 100 % of control | dose: 25.0 mg/kg/injection, schedule: Q04DX002 (ip), vehicle: saline 95 % of control | dose: 50.0 mg/kg/injection, schedule: Q01DX005 (ip), vehicle: saline 97 % of control | [16] 102 % of control | dose: 100.0 mg/kg/injection, schedule: Q01DX005 (ip), vehicle: saline 93 % of control | [17] 104 % of control

CCOC(=O)Nc1ccc(NC(C)=O)cc1
inactive: [1] 104 % of control | [3] 98 % of control | [5] 93 % of control

COc1cc2nc3occc3c(OC)c2c2c1OC(C(C)(C)O)C2 (stereo not given)
inactive: dose: 50.0 mg/kg/injection, schedule: Q01DX001 (ip), vehicle: carboxymethylcellulose (CMC) 98 % of control | [14] 117 % of control | [15] 93 % of control

COc1ccc(C(=O)NC(=S)Nc2ccccc2F)cc1
inactive: [1] 93 % of control | [2] 94 % of control | [3] 90 % of control | [4] 93 % of control | [6] 94 % of control
